{"source": "patent US10717730B1", "about": "“Dihydroisoquinoline compound” (SUZHOU ARK BIOPHARMACEUTICAL CO., LTD., priority 2017, dated 2020)", "test_system": "HBsAg", "test": "HBsAg assay (secreted HBsAg by CLIA in HepG2.2.15 cells)", "format": "cell-based, hepatitis B virus (HBV)", "conditions": "Hepatitis B virus, HepG2.2.15, 96 h", "procedure": "HepG2.2.15 cells (Sells et al, Proc Natl Acad Sci USA. 1987 February; 84(4):1005-9), a constitutively HBV-expressing cell line, were cultured in DMEM medium supplemented with 10% FBS and 400 μg/mL G418, and maintained in 5% CO2 at 37° C.\nHepG2.2.15 cells were seeded into 96-well plates at 3×10^4 cells/well. The next day, the cells were treated with a five-fold serial dilution series of the compound in DMSO. The final DMSO concentration in all wells was 0.5% and 0.5% DMSO was used as no drug control. After four days of incubation with compounds, the supernatants were harvested and measured for HBsAg concentration\nThe HBsAg chemiluminescence immunoassay (CLIA) kit was used to measure the levels of secreted HBsAg. Specifically, 50 μL of culture supernatant was transferred to the CLIA assay plate and 50 μL of enzyme conjugate reagent was added into each well. The plates were sealed and incubated for 1 hour at room temperature. The supernatant-enzyme-mixture was discarded and wells were washed for 6 times. The residual liquid was removed by plating on tissue paper. 25 μL of substrate A and B were added into each well. Luminance was measured using a spectrometer (Tecan Infinite® F200) after 10 minutes incubation. IC50 value was extrapolated based the dose-response curves generated from the data.", "data": [{"smiles": "COc1cc2c(cc1-c1cnc(N3CCCC3)nc1)CC(C(C)(C)C)n1cc(C(=O)O)c(=O)cc1-2", "note": "(centres unmarked) [Example 59, 6-(tert-butyl)-10-methoxy-2-oxo-9-(2-(pyrrolidin-1-yl)pyrimidin-5-yl)-6,7-dihydro-2H-pyrido[2,1-a]isoquinoline-3-carboxylic acid]", "values": [{"measurement": "IC50", "value": 10, "unit": "nM"}]}, {"smiles": "COc1cc2c(cc1-c1cnc(N)nc1)CC(C(C)(C)C)n1cc(C(=O)O)c(=O)cc1-2", "note": "(centres unmarked) [Example 65, 9-(2-aminopyrimidin-5-yl)-6-(tert-butyl)-10-methoxy-2-oxo-6,7-dihydro-2H-pyrido[2,1-a]isoquinoline-3-carboxylic acid]", "values": [{"measurement": "IC50", "value": 80, "unit": "nM"}]}, {"smiles": "COc1ccc(-c2cc3c(cc2OC)-c2cc(=O)c(C(=O)O)cn2C(C(C)(C)C)C3)cc1", "note": "(centres unmarked) [Example 35, 6-(tert-butyl)-10-methoxy-9-(4-methoxyphenyl)-2-oxo-6,7-dihydro-2H-pyrido[2,1-a]isoquinoline-3-carboxylic acid]", "values": [{"measurement": "IC50", "value": 290, "unit": "nM"}]}, {"smiles": "COc1cc2c(cc1-c1cccnc1C)CC(C(C)(C)C)n1cc(C(=O)O)c(=O)cc1-2", "note": "(centres unmarked) [Example 39, 6-(tert-butyl)-10-methoxy-9-(2-methylpyridin-3-yl)-2-oxo-6,7-dihydro-2H-pyrido[2,1-a]isoquinoline-3-carboxylic acid]", "values": [{"measurement": "IC50", "value": 25, "unit": "nM"}]}, {"smiles": "COc1cc2c(cc1-c1cnn(CC(C)C)c1)CC(C(C)C)n1cc(C(=O)O)c(=O)cc1-2", "note": "(centres unmarked) [Example 5, 9-(1-isobutyl-1H-pyrazol-4-yl)-6-isopropyl-10-methoxy-2-oxo-6,7-dihydro-2H-pyrido[2,1-a]isoquinoline-3-carboxylic acid]", "values": [{"measurement": "IC50", "value": 14, "unit": "nM"}]}, {"smiles": "COc1cc2c(cc1-c1ccccc1)CC(C(C)(C)C)n1cc(C(=O)O)c(=O)cc1-2", "note": "(centres unmarked) [Example 33, 6-(tert-butyl)-10-methoxy-2-oxo-9-phenyl-6,7-dihydro-2H-pyrido[2,1-a]isoquinoline-3-carboxylic acid]", "values": [{"measurement": "IC50", "value": 20, "unit": "nM"}]}, {"smiles": "COc1cc2c(cc1-c1ccc(C(F)(F)F)nc1)CC(C(C)(C)C)n1cc(C(=O)O)c(=O)cc1-2", "note": "(centres unmarked) [Example 41, 6-(tert-butyl)-10-methoxy-2-oxo-9-(6-trifluoromethylpyridin-3-yl)-6,7-dihydro-2H-pyrido[2,1-a]isoquinoline-3-carboxylic acid]", "values": [{"measurement": "IC50", "value": 2, "unit": "nM"}]}, {"smiles": "COc1cc2c(cc1-c1ccc(N3CCCC3)nc1)CC(C(C)(C)C)n1cc(C(=O)O)c(=O)cc1-2", "note": "(centres unmarked) [Example 44, 6-(tert-butyl)-10-methoxy-2-oxo-9-(6-(pyrrolidin-1-yl)pyridin-3-yl)-6,7-dihydro-2H-pyrido[2,1-a]isoquinoline-3-carboxylic acid]", "values": [{"measurement": "IC50", "value": 10, "unit": "nM"}]}, {"smiles": "COc1cc2c(cc1-c1cnc(NCC3CC3)nc1)CC(C(C)(C)C)n1cc(C(=O)O)c(=O)cc1-2", "note": "(centres unmarked) [Example 67, 6-(tert-butyl)-9-(2-(cylcopropylmethylamino)pyrimidin-5-yl)-10-methoxy-2-oxo-6,7-dihydro-2H-pyrido[2,1-a]isoquinoline-3-carboxylic acid]", "values": [{"measurement": "IC50", "value": 0.3, "unit": "nM"}]}, {"smiles": "CCOC(=O)CCn1cc(-c2cc3c(cc2OC)-c2cc(=O)c(C(=O)O)cn2C(C(C)(C)C)C3)cn1", "note": "(centres unmarked) [Example 23, 6-(tert-butyl)-9-(1-(3-ethoxy-3-oxopropyl)-1H-pyrazol-4-yl)-10-methoxy-2-oxo-6,7-dihydro-2H-pyrido[2,1-a]isoquinoline-3-carboxylic acid]", "values": [{"measurement": "IC50", "value": 40, "unit": "nM"}]}, {"smiles": "CCOC(=O)c1cn2c(cc1=O)-c1cc(OC)c(-c3ccc(C)nc3)cc1CC2C(C)(C)C", "note": "(centres unmarked) [Example 55, Ethyl 6-(tert-butyl)-10-methoxy-9-(6-methylpyridin-3-yl)-2-oxo-6,7-dihydro-2H-pyrido[2,1-a]isoquinoline-3-carboxylate]", "values": [{"measurement": "IC50", "value": 0.8, "unit": "nM"}]}, {"smiles": "COc1cc2c(cc1-c1ccc(NC(C)=O)nc1)CC(C(C)(C)C)n1cc(C(=O)O)c(=O)cc1-2", "note": "(centres unmarked) [Example 57, 9-(6-acetamidopyridin-3-yl)-6-(tert-butyl)-10-methoxy-2-oxo-6,7-dihydro-2H-pyrido[2,1-a]isoquinoline-3-carboxylic acid]", "values": [{"measurement": "IC50", "value": 1, "unit": "nM"}]}, {"smiles": "COc1cc2c(cc1-c1cnc(N3CCC(C(=O)O)C3)nc1)CC(C(C)(C)C)n1cc(C(=O)O)c(=O)cc1-2", "note": "(centres unmarked) [Example 77, 6-(tert-butyl)-9-(2-(3-carboxypyrrolidin-1-yl)pyrimidin-5-yl)-10-methoxy-2-oxo-6,7-dihydro-2H-pyrido[2,1-a]isoquinoline-3-carboxylic acid]", "values": [{"measurement": "IC50", "value": 150, "unit": "nM"}]}, {"smiles": "COc1cc2c(cc1-c1ccc(F)nc1)CC(C(C)(C)C)n1cc(C(=O)O)c(=O)cc1-2", "note": "(centres unmarked) [Example 49, 6-(tert-butyl)-9-(6-fluoropyridin-3-yl)-10-methoxy-2-oxo-6,7-dihydro-2H-pyrido[2,1-a]isoquinoline-3-carboxylic acid]", "values": [{"measurement": "IC50", "value": 14, "unit": "nM"}]}, {"smiles": "COc1cc2c(cc1-c1cnn(CCN3CCOCC3)c1)CC(C(C)(C)C)n1cc(C(=O)O)c(=O)cc1-2", "note": "(centres unmarked) [Example 16, 6-(tert-butyl)-10-methoxy-9-(1-(2-morpholinylethyl)-1H-pyrazol-4-yl)-2-oxo-6,7-dihydro-2H-pyrido[2,1-a]isoquinoline-3-carboxylaic acid]", "values": [{"measurement": "IC50", "value": 2, "unit": "nM"}]}, {"smiles": "COc1cc2c(cc1-c1cnn(C(F)F)c1)CC(C(C)(C)C)n1cc(C(=O)O)c(=O)cc1-2", "note": "(centres unmarked) [Example 14, 6-(tert-butyl)-9-(1-(difluoromethyl)-1H-pyrazol-4-yl)-10-methoxy-2-oxo-6,7-dihydro-2H-pyrido[2,1-a]isoquinoline-3-carboxylic acid]", "values": [{"measurement": "IC50", "value": 2, "unit": "nM"}]}, {"smiles": "COc1cc2c(cc1-c1cnn(C3COC3)c1)CC(C(C)(C)C)n1cc(C(=O)O)c(=O)cc1-2", "note": "(centres unmarked) [Example 11, 6-(tert-butyl)-10-methoxy-9-(1-(oxetan-3-yl)-1H-pyrazol-4-yl)-2-oxo-6,7-dihydro-2H-pyrido[2,1-a]isoquinoline-2-carboxylic acid]", "values": [{"measurement": "IC50", "value": 3, "unit": "nM"}]}, {"smiles": "COc1cc2c(cc1-c1ccc(N3CCN(C)CC3)nc1)CC(C(C)(C)C)n1cc(C(=O)O)c(=O)cc1-2", "note": "(centres unmarked) [Example 47, 6-(tert-butyl)-10-methoxy-9-(6-(4-methylpiperazin-1-yl)pyridin-3-yl)-2-oxo-6,7-dihydro-2H-pyrido[2,1-a]isoquinoline-3-carboxylic acid]", "values": [{"measurement": "IC50", "value": 2, "unit": "nM"}]}, {"smiles": "COc1cc2c(cc1-c1cnn(C(C)C(=O)O)c1)CC(C(C)(C)C)n1cc(C(=O)O)c(=O)cc1-2", "note": "(centres unmarked) [Example 26, 6-(tert-butyl)-9-(1-(1-carboxyethyl)-1H-pyrazol-4-yl)-10-methoxy-2-oxo-6,7-dihydro-2H-pyrido[2,1-a]isoquinoline-3-carboxylic acid]", "values": [{"measurement": "IC50", "value": 8, "unit": "nM"}]}, {"smiles": "COc1cc2c(cc1-c1ccnc(C)c1)CC(C(C)(C)C)n1cc(C(=O)O)c(=O)cc1-2", "note": "(centres unmarked) [Example 38, 6-(tert-butyl)-10-methoxy-9-(2-methylpyridin-4-yl)-2-oxo-6,7-dihydro-2H-pyrido[2,1-a]isoquinoline-3-carboxylic acid]", "values": [{"measurement": "IC50", "value": 5, "unit": "nM"}]}, {"smiles": "CCc1ccc(-c2cc3c(cc2OC)-c2cc(=O)c(C(=O)O)cn2C(C(C)(C)C)C3)cc1", "note": "(centres unmarked) [Example 34, 6-(tert-butyl)-9-(4-ethylphenyl)-10-methoxy-2-oxo-6,7-dihydro-2H-pyrido[2,1-a]isoquinoline-3-carboxylic acid]", "values": [{"measurement": "IC50", "value": 36, "unit": "nM"}]}, {"smiles": "COc1cc2c(cc1-c1ccc(C)nc1)CC(C(C)C)n1cc(C(=O)O)c(=O)cc1-2", "note": "(centres unmarked) [Example 7, 6-isopropyl-10-methoxy-9-(6-methylpyridin-3-yl)-2-oxo-6,7-dihydro-2H-pyrido[2,1-a]isoquinoline-3-carboxylic acid]", "values": [{"measurement": "IC50", "value": 36, "unit": "nM"}]}, {"smiles": "COc1cc2c(cc1-c1ccc(N)nc1)CC(C(C)(C)C)n1cc(C(=O)O)c(=O)cc1-2", "note": "(centres unmarked) [Example 54, 9-(6-aminopyridin-3-yl)-6-(tert-butyl)-10-methoxy-2-oxo-6,7-dihydro-2H-pyrido[2,1-a]isoquinoline-3-carboxylic acid]", "values": [{"measurement": "IC50", "value": 1, "unit": "nM"}]}, {"smiles": "COc1cc2c(cc1-c1ccc(N3CCN(C(C)=O)CC3)nc1)CC(C(C)(C)C)n1cc(C(=O)O)c(=O)cc1-2", "note": "(centres unmarked) [Example 46, 9-(6-(4-acetylpiperazin-1-yl)pyridin-3-yl)-6-(tert-butyl)-10-methoxy-2-oxo-6,7-dihydro-2H-pyrido[2,1-a]isoquinoline-3-carboxylic acid]", "values": [{"measurement": "IC50", "value": 3, "unit": "nM"}]}, {"smiles": "COc1cc2c(cc1-c1cnc(C)nc1)CC(C(C)(C)C)n1cc(C(=O)O)c(=O)cc1-2", "note": "(centres unmarked) [Example 58, 6-(tert-butyl)-10-methoxy-9-(2-methylpyrimidin-5-yl)-2-oxo-6,7-dihydro-2H-pyrido[2,1-a]isoquinoline-3-carboxylic acid]", "values": [{"measurement": "IC50", "value": 4, "unit": "nM"}]}, {"smiles": "COc1cccc(-c2cc3c(cc2OC)-c2cc(=O)c(C(=O)O)cn2C(C(C)(C)C)C3)c1", "note": "(centres unmarked) [Example 36, 6-(tert-butyl)-10-methoxy-9-(3-methoxyphenyl)-2-oxo-6,7-dihydro-2H-pyrido[2,1-a]isoquinoline-3-carboxylic acid]", "values": [{"measurement": "IC50", "value": 10, "unit": "nM"}]}, {"smiles": "COc1cc2c(cc1-c1cnc(N3CCOCC3)nc1)CC(C(C)(C)C)n1cc(C(=O)O)c(=O)cc1-2", "note": "(centres unmarked) [Example 62, 6-(tert-butyl)-10-methoxy-9-(2-morpholinylpyrimidin-5-yl)-2-oxo-6,7-dihydro-2H-pyrido[2,1-a]isoquinoline-3-carboxylic acid]", "values": [{"measurement": "IC50", "value": 5, "unit": "nM"}]}, {"smiles": "COc1cc2c(cc1-c1cnc(NC3CC3)nc1)CC(C(C)(C)C)n1cc(C(=O)O)c(=O)cc1-2", "note": "(centres unmarked) [Example 64, 6-(tert-butyl)-9-(2-(cyclopropylamino)pyrimidin-5-yl)-10-methoxy-2-oxo-6,7-dihydro-2H-pyrido[2,1-a]isoquinoline-3-carboxylic acid]", "values": [{"measurement": "IC50", "value": 7, "unit": "nM"}]}, {"smiles": "COc1cc2c(cc1-c1cnn(CC(F)(F)F)c1)CC(C(C)(C)C)n1cc(C(=O)O)c(=O)cc1-2", "note": "(centres unmarked) [Example 10, 6-(tert-butyl)-10-methoxy-2-oxo-9-(1-(2,2,2-trifluoroethyl)-1H-pyrazol-4-yl)-6,7-dihydro-2H-pyrido[2,1-a]isoquinoline-3-carboxylic acid]", "values": [{"measurement": "IC50", "value": 6, "unit": "nM"}]}]}
